{"source": "patent US20230265391A1", "about": "“METHODS AND COMPOSITIONS FOR MAKING AND USING ENDOCARDIAL CELLS” (University Health Network, priority 2020, published 2023)", "type_in_all_cases": "cell-based, human", "key": {"NKX2-5+ CD31+ cells [1]": {"tested_on": "NKX2-5+ CD31+ cells", "assay": "Generation of NKX2-5+ CD31+ cells from hPSC-derived cardiogenic mesoderm (flow cytometry)", "procedure": "To generate endocardial/endothelial cells, hPSCs were differentiated to cardiogenic mesoderm using the protocol described above. At day 3, the EBs were dissociated with TrypLE for 3 min at 37° C. and the cells plated in 96-well flat bottom microplates (Falcon) coated with Matrigel (25% v/v, Corning) at a density of 10e5 cells per well. The monolayers were cultured in StemPro-34 supplemented with penicillin/streptomycin (1%, ThermoFisher), L-glutamine (2 mM, ThermoFisher), ascorbic acid (50 μg/ml, Sigma), monothioglycerol (50 μg/ml, Sigma), transferrin (150 μg/ml, ROCHE) and rhbFGF (50 ng/ml, R&D). For endocardial induction, rhBMP10 (10 ng/ml) was added to the media from day 5 to day 9. For generation of control endothelial cells, VEGFA (100 ng/mL, R&D) was added to the differentiation media from day 3 to day 9. The cultures were incubated in a low oxygen environment (5% CO2, 5%O2, 90% N2) and the media was changed every 2 days. At day 9, HES3-NKX2-5eGFP/w-derived endocardial/endothelial cells were analyzed and isolated based on the expression of NKX2-5:GFP and CD31. The endocardial cells generated from the non-transgenic hPSC lines were analyzed and isolated as CD31+ populations. For dissociation, the monolayers were incubated in Collagenase type 2 (1 mg/ml, Worthington) in HANKs buffer at 37° C. for one hour.\nDay 3 EBs were dissociated with TrypLE for 3 min at 37° C. Day 9-23 EBs or mixed populations of cardiomyocytes and endocardial/endothelial cells were dissociated by incubation in Collagenase type 2 (1 mg/ml, Worthington) in HANKS buffer at 37° C. for one hour followed by TrypLE treatment (5 min at 37° C.). The following antibodies were used for staining: anti-SIRPA-PeCy7 (Biolegend, 1:1000), anti-CD31-PE (BD Pharmingen, 1:100), anti-CD31-FITC (BD Pharmingen, 1:100), anti-CD31-AF647 (BD Pharmingen, 1:100), anti-CD90-APC (BD Pharmingen, 1:1000), anti-PDGFRB-BV421 (BD Pharmingen, 1:100), anti-CD105-APC (eBioscience, 1:200), anti-CD56-APC (BD Pharmingen, 1:100), anti-PDGFRA-PE (BD Pharmingen, […]), anti-CD36-APC (Biolegend, 1:100), anti-LDLR-BV421 (Biolegend, 1:100), anti-cardiac isoform of CTNT (ThermoFisher Scientific, 1:2000), or anti-myosin light chain 2 (Abcam, 1:1000), anti-ANP (Abcam, 1:500). For unconjugated primary antibodies, the following secondary antibodies were used for detection: goat anti-mouse IgG-APC (BD Pharmigen, 1:250), or donkey anti-rabbit IgG-AF488 (ThermoFisher Scientific, 1:1000). Detailed antibody information is described in the Key Resources Table. For cell-surface marker analyses, cells were stained for 30 min at 4° C. in FACS buffer consisting of PBS with 5% fetal calf serum (FCS) (Wisent) and 0.02% sodium azide. For intracellular staining, cells were fixed for 15 min at 4° C. with 4% PFA in PBS followed by permeabilization using 90% methanol for 20 min at 4° C. Cells were washed with PBS containing 0.5% BSA (Sigma) and stained with unconjugated primary antibodies in FACS buffer overnight at 4° C. Stained cells were washed with PBS with 0.5% BSA and stained with secondary antibodies in FACS buffer for 1 h at 4° C. Stained cells were analyzed using an LSR II Flow cytometer (BD). For cell sorting, cells were stained, washed and kept in IMDM with 0.2% KnockOut™ serum replacement and sorted using either Influx (BD), FACSAriaII (BD), MoFlo-XDP (BD) of FACSAria Fusion (BD) cells sorter at the Sickids/UHN flow cytometry facility. Data were analyzed using FlowJo software (Tree Star).\nInitial experiments were set up to identify the signaling pathways that would promote the generation of a NKX2-5+ CD31+ cell that we propose represents the earliest stage of human endocardial development. The transgenic HES3-NKX2-5eGFP/w reporter line (Elliott et al., 2011, Nat. Methods, 8(12):1037-40) was used to allow for the identification of NKX2-5+ cells by flow cytometry. […]"}, "[2]": {"tested_on": "NKX2-5+ CD31+ endocardial-like cells", "assay": "8-day culture of sorted day 9 NKX2-5+ CD31+ endocardial-like or control endothelial cells with VEGFA and BMP", "procedure": "(§1) For culture in the absence of cardiomyocytes, the endocardial or control endothelial cells (HES3-NKX2-5eGFP/w line) isolated at day 9 of differentiation were plated in a 96-well flat bottom microplate (Falcon) coated with Matrigel (25% v/v, Corning) at a density 2.5×10e4 cells per well in StemPro-34 supplemented with penicillin/streptomycin (1%, ThermoFisher), L-glutamine (2 mM, ThermoFisher), ascorbic acid (50 μg/ml, Sigma), monothioglycerol (50 μg/ml, Sigma), rhVEGFA (100 ng/ml, R&D) with or without rhBMP10 (10 ng/ml) or rhBMP4 (10 ng/ml). For co-culture of the two cell types, 5×10e4 hPSC-derived SIRPA+ cardiomyocytes (day 9) were mixed together with either 2.5×10e4 HES3-NKX2-5eGFP/w- or 5×10e4 HES2:RFP-derived endocardial or endothelial cells and cultured for 8 days in 96-well flat bottom microplates (Falcon) coated with Matrigel (25% v/v, Corning) in StemPro-34 supplemented with penicillin/streptomycin (1%, ThermoFisher), L-glutamine (2 mM, ThermoFisher), ascorbic acid (50 μg/ml, Sigma), monothioglycerol (50 μg/ml, Sigma) and rhVEGFA (100 ng/ml, R&D). For inhibition of the NRG-ERBB pathway lapatinib (10 μM, LC labs) was added to the media. Control cardiomyocytes were cultured as aggregates as described above in the same media with or without NRG1 (50 ng/ml). The cultures were incubated in a normoxic environment (5% CO2) and the media was changed every 2 days.\nTo further investigate differences between these pathway agonists, BMP10-induced NKX2-5+ CD31+ cells were cultured in the presence of different concentrations of either BMP4 or BMP10 for 8 days. VEGFA was added to maintain the endothelial phenotype of the cells during this culture period."}, "NKX2-5+ CD31+ cells [3]": {"tested_on": "NKX2-5+ CD31+ cells", "assay": "Generation of NKX2-5+ CD31+ cells from hPSC-derived cardiogenic mesoderm (flow cytometry)", "details": "BMP alone (10 ng/ml) in the absence of bFGF; day 9"}, "[4]": {"tested_on": "RFP+ CD31+ endocardial-like cells and SIRPA+ cardiomyocytes", "assay": "Co-culture of HES2-RFP CD31+ endocardial-like cells with HES2-GFP SIRPA+ cardiomyocytes", "details": "lapatinib 10 μM, 8 days co-culture, VEGFA 100 ng/ml", "procedure": "as §1, with “days. […]” for “days.”"}, "[5]": {"tested_on": "NKX2-5+ CD31+ endocardial-like cells and SIRPA+ cardiomyocytes", "assay": "Co-culture of NKX2-5+ CD31+ endocardial-like cells (HES3-NKX2-5eGFP/w) with SIRPA+ cardiomyocytes", "procedure": "as §1, with “days. […]” for “days.”"}}, "data": [{"molecule": "Cc1ccc2nc(NC(=O)CSc3nc4c(c(=O)n3-c3ccccc3)SCC4)sc2c1", "note": "[IWP2, reference compound]", "values": [{"measurement": "total number of NKX2-5+ CD31+ cells", "setting": "NKX2-5+ CD31+ cells [1]; IWP2 added for 4 or 6 days from day 3, day 9", "result": "reduced"}, {"measurement": "frequency of NKX2-5+ CD31+ cells generated", "setting": "NKX2-5+ CD31+ cells [1]; Wnt inhibition, 2 μM IWP2 for 2, 4 or 6 days from day 3, day 9 read-out", "result": "significant reduction"}]}, {"molecule": "Cc1c[nH]c(-c2cnc(NCCNc3ccc(C#N)cn3)nc2-c2ccc(Cl)cc2Cl)n1", "note": "[CHIR99021, reference compound]", "values": [{"measurement": "total number of NKX2-5+ CD31+ cells produced", "setting": "NKX2-5+ CD31+ cells [1]; 1 μM CHIR99021 for 2, 4 or 6 days from day 3, day 9", "result": "did not impact"}, {"measurement": "frequency of NKX2-5+ CD31+ cells", "setting": "NKX2-5+ CD31+ cells [1]; 1 μM CHIR99021 for 6 days from day 3, day 9", "result": "decrease"}]}, {"molecule": "BMP10: Recombinant human BMP10 (R&D)", "values": [{"measurement": "proportion of NKX2-5+ CD31+ cells generated", "setting": "NKX2-5+ CD31+ cells [1]; BMP 10 ng/ml paired with exogenous bFGF, day 9", "result": "significantly increased"}, {"measurement": "NRG1 expression in induced NKX2-5+ CD31+ population (RT-qPCR)", "setting": "NKX2-5+ CD31+ cells [1]; BMP10-induced versus BMP4-induced cells", "result": "higher levels"}, {"measurement": "fraction of CD105+ cells", "setting": "NKX2-5+ CD31+ cells [1]; BMP10-induced versus BMP4-induced or control endothelial populations", "result": "much larger fraction"}, {"measurement": "total number of NKX2-5+ CD31+ cells at days 8 and 9", "setting": "NKX2-5+ CD31+ cells [1]; BMP10-induced versus BMP4-treated populations", "result": "significantly higher"}, {"measurement": "day of emergence of NKX2-5+ CD31+ cells", "setting": "NKX2-5+ CD31+ cells [1]; BMP agonist with bFGF, populations persisted to day 12", "result": 8, "unit": "days"}, {"measurement": "concentration inducing the highest frequency and number of NKX2-5+ CD31+ cells", "setting": "NKX2-5+ CD31+ cells [1]; days 5-9, in presence of bFGF 50 ng/ml", "result": 10, "unit": "ng/mL"}, {"measurement": "NRG1 levels in cultured NKX2-5+ CD31+ cells", "setting": "[2]; 8 days, BMP10 10 ng/ml versus BMP4 10 ng/ml, VEGFA 100 ng/ml", "result": "sustained higher levels"}, {"measurement": "maintaining the NKX2-5+ CD31+ cell phenotype", "setting": "[2]; 8 days, VEGFA 100 ng/ml, all concentrations of agonist tested", "result": "more effective than BMP4"}, {"measurement": "NRG1 expression in control endothelial population", "setting": "[2]; BMP10 added during 8-day culture", "result": "did not lead to the upregulation"}, {"measurement": "populations containing CD31+ cells", "setting": "NKX2-5+ CD31+ cells [3]", "result": "None"}]}, {"molecule": "CS(=O)(=O)CCNCc1ccc(-c2ccc3ncnc(Nc4ccc(OCc5cccc(F)c5)c(Cl)c4)c3c2)o1", "note": "[lapatinib]", "values": [{"measurement": "induction of trabecular myocardium markers by RFP+ CD31+ endocardial-like cells", "setting": "[4]", "result": "inhibited"}, {"measurement": "induction of the trabecular fate by NKX2-5+ CD31+ endocardial-like cells", "setting": "[5]; lapatinib 10 μM, 8 days co-culture, VEGFA 100 ng/ml", "result": "inhibited"}]}, {"molecule": "c1ccc2c(-c3cnn4cc(-c5ccc(N6CCNCC6)cc5)cnc34)ccnc2c1", "note": "[LDN193189]", "values": [{"measurement": "NKX2-5 expression in endocardial cells", "setting": "[5]; cells isolated from co-cultures and cells treated with BMP10, 8 days, different concentrations of LDN193189", "result": "partial downregulation"}]}]}
